# Results reported in a compilation of properties of binary mixtures (doi:10.1016/j.molliq.2021.116463).
# Assay: xn = mol fraction of the nth substance listed
# Details: 100 kPa
compound,measurement,setting,value
[Cl-].c1c[nH+]c[nH]1 + OCC(O)CO,viscosity,"293.2 K, x1 = 0.1667",565 mPa·s
same,viscosity,"293.2 K, x1 = 0.25",429 mPa·s
same,viscosity,"293.2 K, x1 = 0.3333",321 mPa·s
same,viscosity,"293.2 K, x1 = 0.5",472 mPa·s
same,viscosity,"303.2 K, x1 = 0.1667",397 mPa·s
same,viscosity,"303.2 K, x1 = 0.25",294 mPa·s
same,viscosity,"303.2 K, x1 = 0.3333",219 mPa·s
same,viscosity,"303.2 K, x1 = 0.5",355 mPa·s
same,viscosity,"313.2 K, x1 = 0.25",207 mPa·s
same,viscosity,"313.2 K, x1 = 0.5",285 mPa·s
same,viscosity,"323.2 K, x1 = 0.1667",196 mPa·s
same,viscosity,"323.2 K, x1 = 0.5",141.2 mPa·s
same,viscosity,"333.2 K, x1 = 0.1667",149.3 mPa·s
same,viscosity,"333.2 K, x1 = 0.25",60.9 mPa·s
same,viscosity,"333.2 K, x1 = 0.3333",49.6 mPa·s
same,viscosity,"343.2 K, x1 = 0.1667",127.7 mPa·s
same,viscosity,"343.2 K, x1 = 0.25",37.7 mPa·s
same,viscosity,"343.2 K, x1 = 0.3333",31.2 mPa·s
same,viscosity,"353.2 K, x1 = 0.1667",116.4 mPa·s
same,viscosity,"353.2 K, x1 = 0.25",24.8 mPa·s
same,viscosity,"353.2 K, x1 = 0.3333",20.6 mPa·s
same,viscosity,"353.2 K, x1 = 0.5",38.2 mPa·s
